Source: article PMC8187357 (Communications Biology, 2021)
Where “and” joins values, the source holds several entries; their conditions need not be identical. Identical values can stand only once. Entries after “also recorded” stand apart in the source; their conditions may differ.

What was measured:
MC38 colon carcinoma = experiment: MC38 tumors in immunodeficient SCID beige mice; type: in vivo, mouse; conditions: for Individual tumor volumes: MC-38 in SCID beige mice, 10mg/kg, 10 mg/kg
Method: For MC38 syngeneic colon carcinoma subcutaneous model, 0.5 × 10^6 MC38 cells (Source: NCI/NIH, kind gift from Dr. Michael Pollack) were injected subcutaneously to the left flank of the C57B6 mouse (In-house) or SCID Beige mice (Source: Harlan, France) on day 1 and dosing was initiated when average tumor volume reached ~100 mm^3. Animals were randomized based on tumor volumes and treated with either a vehicle control or CA-170 at indicated doses for 14 days. Anti-PD1 antibody (Clone J43 from BioXcel) was dosed intraperitoneally at 100 µg/animal once every week. Treatment efficacy was assessed in terms of the effects of the test substances on the tumor volumes of treated mice relative to vehicle-treated mice. Tumor growth curves of test and control groups using the mean tumor volumes were drawn, percent tumor growth inhibition (%TGI) […].

[1] = test system: Dopamine D1, D2S, D3, D44, D5; experiment: CEREP 80 panel binding: Dopamine; conditions: 10 µM
Method: (§1) CEREP 80 panel assay was carried out by Eurofins Cerep Panlabs facility at France. A series of binding assays was carried out to understand the off-target toxicity of CA-170. CA-170 was tested at 10 μM test concentration in duplicates. Compound binding was calculated as a % inhibition of the binding of a radioactively labeled ligand specific for each target. In each experiment the respective reference compound was tested concurrently with CA-170, and the data were compared with historical values determined at Eurofins. The experiment was accepted in accordance with Eurofins validation standard operating procedure. The results are expressed as a percent of control specific binding; (measured specific binding / control specific binding) × 100 and as a percent inhibition of control specific binding; 100−(measured specific binding / control specific binding) × 100 obtained in the presence of CA-170. The IC50 values (concentration causing a half-maximal inhibition of control specific binding) and Hill coefficients (nH) were determined by non-linear regression analysis of the competition curves generated with mean replicate values using Hill equation curve fitting.

PD-L1 [2] = target: T1, PD-L1 (Macaca fascicularis, UniProt G7PSE7); experiment: Rescue of proliferation inhibited by PD-L1, monkey PBMC; type: cell-based; conditions: n=1
T1 sequence (G7PSE7 19-239): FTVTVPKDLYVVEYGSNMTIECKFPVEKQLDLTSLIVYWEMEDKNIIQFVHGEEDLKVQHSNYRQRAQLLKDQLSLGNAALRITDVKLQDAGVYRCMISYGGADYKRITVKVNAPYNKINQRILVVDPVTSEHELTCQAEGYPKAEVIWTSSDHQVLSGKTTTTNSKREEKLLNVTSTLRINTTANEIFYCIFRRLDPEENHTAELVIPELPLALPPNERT
Method: (§2) The ability of peptides, peptidomimetics, and small molecules were analyzed for their ability to rescue T-cell proliferation or IFN-γ release from the inhibitory activity of PD-L1 or PD-L2 in a splenocyte/PBMC-based functional assay as per the protocols reported in publication. […] For all in vitro assays, test agent stock was prepared in water and diluted further in the assay media to achieve test concentrations. Each experimental condition was carried out in triplicates. Percent rescue for a given test compound concentration was calculated by normalizing individual percent test agent proliferation or IFN-γ release values to percent anti-CD3 and anti-CD28 antibodies stimulated proliferation or IFN-γ release. EC50 values were derived by plotting transformed data into non-linear fit in sigmoidal dose–response curve using GraphPad Prism software (Version 7).

PD-L1 [3] = target: PD-L1 (Homo sapiens, UniProt Q9NZQ7); experiment: Rescue of IFN-γ release inhibited by PD-L1, human PBMC; type: cell-based; set-up: purchased R&D systems 156-B7-100; conditions: for IFNγ Rescue (%): inhibited by PD-L1; for IFNγ Rescue (%) / IFN-γ: replicates; for IFN-γ: human PBMCs + anti-CD3/anti-CD28 + PD-L1 10 nM
Chain of PD-L1 (Homo sapiens, UniProt Q9NZQ7) (Q9NZQ7 with tags, fused parts or gaps limits assumed): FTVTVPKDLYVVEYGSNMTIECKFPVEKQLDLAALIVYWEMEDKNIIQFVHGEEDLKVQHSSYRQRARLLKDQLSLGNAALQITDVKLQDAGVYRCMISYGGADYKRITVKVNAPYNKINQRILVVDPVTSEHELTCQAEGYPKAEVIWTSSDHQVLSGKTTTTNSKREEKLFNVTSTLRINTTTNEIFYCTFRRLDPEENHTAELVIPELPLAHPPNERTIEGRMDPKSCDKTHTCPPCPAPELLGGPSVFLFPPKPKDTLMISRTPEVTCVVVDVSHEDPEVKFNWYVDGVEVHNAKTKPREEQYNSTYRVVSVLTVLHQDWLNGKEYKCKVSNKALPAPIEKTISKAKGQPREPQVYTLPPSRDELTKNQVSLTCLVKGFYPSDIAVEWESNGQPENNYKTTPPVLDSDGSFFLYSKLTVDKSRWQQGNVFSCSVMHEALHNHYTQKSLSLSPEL
Method: as §2

MC38 tumor bearing mice = experiment: Immune pharmacodynamics in MC38 model; type: in vivo, mouse; conditions: CA-170, 10 mg/kg, individual animals
Excerpt: For the measurement of immune pharmacodynamics, CT26 cells were subcutaneously implanted into 5 to 7 weeks old male Balb/c mice by injecting 1 million CT26 tumor cells/ animal. When tumor volume reached ~200mm^3, animals were randomized and allocated to three treatment groups (n = 5). Similarly, for the measurement of immune pharmacodynamics in MC38 model, MC38 cell lines were subcutaneously implanted into 5 to 7 weeks old male C57B6 mice by injecting 0.5 million cells/animal. Dosing was initiated when tumor volume reached ~100 mm^3. In both tumor models, mice were orally treated daily with vehicle and CA-170 (10 mg/kg) for 5 days. As an additional control, anti-PD1 antibody (100 μg/animal, clone J43) was dosed intraperitoneally on day 1. After 24 h of last dosing, animals were sacrificed, and blood samples and tumor tissues were collected from each animal and processed for PD evaluation using antibodies shown in Supplementary Table 1 and specific methods reported in publication[51] and analyzed by FACS. The gating strategy is detailed in Supplementary Fig. 3.

PD-L2 = target: T2, PD-L2 (Homo sapiens, UniProt Q9BQ51); experiment: Rescue of IFN-γ release inhibited by PD-L2, human PBMC; type: cell-based; conditions: for IFNγ Rescue (%): inhibited by PD-L2; for IFNγ Rescue (%) / IFN-γ: replicates; for IFN-γ: human PBMCs + anti-CD3/anti-CD28 + PD-L2 10 nM
T2 construct: purchased R&D systems 1224-PL-100
T2 sequence (Q9BQ51 with tags, fused parts or gaps limits assumed): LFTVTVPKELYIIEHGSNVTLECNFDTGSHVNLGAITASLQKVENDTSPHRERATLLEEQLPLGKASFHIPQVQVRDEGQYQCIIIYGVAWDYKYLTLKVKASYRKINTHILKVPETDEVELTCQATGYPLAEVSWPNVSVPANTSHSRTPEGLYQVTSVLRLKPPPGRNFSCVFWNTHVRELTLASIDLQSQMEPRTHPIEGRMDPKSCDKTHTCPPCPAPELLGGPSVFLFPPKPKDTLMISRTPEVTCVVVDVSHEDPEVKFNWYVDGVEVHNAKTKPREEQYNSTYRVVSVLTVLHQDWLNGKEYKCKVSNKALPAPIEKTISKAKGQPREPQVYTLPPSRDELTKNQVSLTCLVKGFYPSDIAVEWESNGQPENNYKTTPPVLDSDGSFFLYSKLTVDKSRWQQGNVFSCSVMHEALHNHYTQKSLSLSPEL
Method: as §2

PACAP,VIP1 = experiment: CEREP 80 panel binding: VIP; conditions: 10 µM
Method: as §1

Endothelin ETA, ETB = experiment: CEREP 80 panel binding: Endothelin; conditions: 10 µM
Method: as §1

[4] = test system: Ion Channels Ca2+, Kv, Skca, Na2+; experiment: CEREP 80 panel binding: Ion Channels; conditions: 10 µM
Method: as §1

PD-L1 [5] = target: T1, PD-L1; experiment: Rescue of IFN-γ release inhibited by PD-L1, monkey PBMC; type: cell-based; conditions: n=1
Method: as §2

Melatonin MT1 = target: T3, Melatonin MT1 (Homo sapiens, UniProt P48039); experiment: CEREP 80 panel binding: Melatonin; conditions: read-out: % Inhibition of Control Specific Binding
T3 construct: Eurofins Cerep Panlabs (contract assay)
T3 sequence (P48039 whole entry): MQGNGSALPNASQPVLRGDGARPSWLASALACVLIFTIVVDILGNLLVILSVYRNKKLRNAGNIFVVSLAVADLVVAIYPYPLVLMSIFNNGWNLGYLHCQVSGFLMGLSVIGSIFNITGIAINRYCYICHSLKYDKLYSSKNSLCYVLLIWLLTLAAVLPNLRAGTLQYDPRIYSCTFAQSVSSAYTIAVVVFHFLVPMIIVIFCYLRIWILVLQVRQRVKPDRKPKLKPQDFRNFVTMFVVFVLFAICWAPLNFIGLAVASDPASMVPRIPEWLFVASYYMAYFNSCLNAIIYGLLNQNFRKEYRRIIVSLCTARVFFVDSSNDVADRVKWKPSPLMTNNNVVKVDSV
Method: as §1

Chemokines CCR1, CXCR2 = experiment: CEREP 80 panel binding: Chemokines; conditions: 10 µM
Method: as §1

[6] = test system: Cholecystokinin CCK1, CCK2; experiment: CEREP 80 panel binding: Cholecystokinin; conditions: 10 µM
Method: as §1

parental CHO-K1 cells = experiment: Cellular NMR (T2), parental CHO-K1 cells; type: binding; conditions: cell-based NMR; no measurable PD-L1 expression
Bombesin BB = experiment: CEREP 80 panel binding: Bombesin; conditions: 10 µM
Method: as §1

[7] = human PBMCs stimulated with anti-CD3 and anti-CD28

`C[C@@H](O)[C@H](NC(=O)N[C@@H](CC(N)=O)c1nc([C@@H](N)CO)no1)C(=O)O` [CA-170] was tested, and the Individual tumor volumes (MC38 colon carcinoma; day 0 of treatment) was 18.9 mm3 and 19.8 mm3 and 20.5 mm3 and 23 mm3 and 24.3 mm3 and 24.4 mm3 and 27.8 mm3 and 29.3 mm3 and 36.6 mm3 and 38.8 mm3 and 45.9 mm3, the Individual tumor volumes (MC38 colon carcinoma; day 4 of treatment) was 165.2 mm3 and 101 mm3 and 33 mm3 and 98.6 mm3 and 101.4 mm3 and 42.7 mm3 and 80.2 mm3 and 120.3 mm3 and 117 mm3 and 120.8 mm3 and 58.8 mm3 and the Individual tumor volumes (MC38 colon carcinoma; day 6 of treatment) was 428.8 mm3 and 320.3 mm3 and 190.1 mm3 and 337.3 mm3 and 331.1 mm3 and 174.3 mm3 and 206.7 mm3 and 322.4 mm3 and 214 mm3 and 233.5 mm3 and 207.9 mm3. The Individual tumor volumes (MC38 colon carcinoma; day 8 of treatment) was 764.7 mm3 and 861.8 mm3 and 304.4 mm3 and 735.9 mm3 and 484.9 mm3 and 297 mm3 and 527.3 mm3 and 483.7 mm3 and 349.6 mm3 and 472.6 mm3 and 369.9 mm3, the Individual tumor volumes (MC38 colon carcinoma; day 11 of treatment) was 1229.8 mm3 and 1458.4 mm3 and 838.9 mm3 and 1334.2 mm3 and 1120.4 mm3 and 912.1 mm3 and 1214.1 mm3 and 1274.2 mm3 and 788.4 mm3 and 1032.8 mm3 and 931.5 mm3 and the Individual tumor volumes (MC38 colon carcinoma; day 13 of treatment) was 1679 mm3 and 1958.7 mm3 and 1062 mm3 and 1678.6 mm3 and 1535.8 mm3 and 938 mm3 and 1760.9 mm3 and 1177.1 mm3 and 1641.5 mm3 and 1410.5 mm3. For the same compound, the “tumor growth vs vehicle in immunodeficient mice (in words)” value (MC38 colon carcinoma; SCID beige mice, MC-38, 10 mg/kg/day for 14 days) was “no difference in the tumor volumes; also recorded: no statistically significant difference”, the “% Inhibition of Control Specific Binding” value [1] was at most 14% and the EC50 (PD-L1 [2]) was 34 nM. The “IFNγ Rescue (%)” value (PD-L1 [3]; 1.95 nM) was -2.66% and -2.30% and -1.54%, the “IFNγ Rescue (%)” value (PD-L1 [3]; 3.91 nM) was -2.42% and -2.56% and -1.54% and the “IFNγ Rescue (%)” value (PD-L1 [3]; 15.63 nM) was 20.10% and 20.46% and 27.08%. The IFN-γ (PD-L1 [3]; 31.25 nM) was 256.5 pg/mL and 264 pg/mL and 296.5 pg/mL, the “IFNγ Rescue (%)” value (PD-L1 [3]; 31.25 nM) was 21.31% and 22.51% and 31.08% and the “IFNγ Rescue (%)” value (PD-L1 [3]; 62.50 nM) was 42.13% and 43.48% and 57.23%. For the same compound, the “IFNγ Rescue (%)” value (PD-L1 [3]; 250.00 nM) was 76.76% and 83.89% and 104.62%, the IFN-γ (PD-L1 [3]; 500 nM) was 876.5 pg/mL and 939 pg/mL and 906.5 pg/mL and the “IFNγ Rescue (%)” value (PD-L1 [3]; 500.00 nM) was 81.36% and 91.56% and 106.15%. For the same compound, the “rescue of IFNγ release inhibited by recombinant PD-L1 (in words)” value (PD-L1 [3]; [7]) was “rescued IFNγ release”, the EC50 (PD-L1 [3]; mean ± S.D., n=3) was 66.1 nM and the “CD8+ GNZ+ T cells in Tumor % Lymphocytes, CD3+, CD8+ T cells” value (MC38 tumor bearing mice) was 52.4% and 36.3% and 28.5% and 36.2% and 20.1%. The “CD8+ IFN-γ+ T cells in Blood % Lymphocytes, CD3+, CD8+ T cells” value (MC38 tumor bearing mice) was 1.71% and 2.24% and 2.27% and 1.35% and 2.63%, the “CD8+ IFN-γ+ T cells in Tumor % Lymphocytes, CD3+, CD8+ T cells” value (MC38 tumor bearing mice) was 64.9% and 53.2% and 43.5% and 48.8% and 40.7% and the “IFNγ Rescue (%)” value (PD-L2; 1.95 nM) was -64.52% and -5.10% and -5.67%. For the same compound, the “IFNγ Rescue (%)” value (PD-L2; 3.91 nM) was -3.89% and -4.90% and -5.25%, the “IFNγ Rescue (%)” value (PD-L2; 7.81 nM) was -1.08% and -2.04% and -2.73% and the “IFNγ Rescue (%)” value (PD-L2; 15.63 nM) was 4.10% and 2.24% and 2.52%. The IFN-γ (PD-L2; 31.25 nM) was 66.5 pg/mL and 74 pg/mL and 64 pg/mL, the “IFNγ Rescue (%)” value (PD-L2; 31.25 nM) was 4.10% and 2.86% and 1.89% and the “IFNγ Rescue (%)” value (PD-L2; 62.50 nM) was 39.96% and 36.33% and 35.71%. The “IFNγ Rescue (%)” value (PD-L2; 250.00 nM) was 74.73% and 74.90% and 79.20%, the IFN-γ (PD-L2; 500 nM) was 869 pg/mL and 984 pg/mL and 1059 pg/mL and the “IFNγ Rescue (%)” value (PD-L2; 500.00 nM) was 73.43% and 77.14% and 85.50%. For the same compound, the “rescue of IFNγ release inhibited by recombinant PD-L2 (in words)” value (PD-L2; [7]) was “rescued IFNγ release”, the EC50 (PD-L2; mean ± S.D., n=3) was 80.9 nM and the “% Inhibition of Control Specific Binding” value (PACAP,VIP1) was at most 9%. For the same compound, the “% Inhibition of Control Specific Binding” value (Endothelin ETA, ETB) was at most 9%, the “% Inhibition of Control Specific Binding” value [4] was 1% and the EC50 (PD-L1 [5]) was 97.8 nM. The inhibition at 10 µM (Melatonin MT1) was 5%, the “% Inhibition of Control Specific Binding” value (Chemokines CCR1, CXCR2) was 1% and the “% Inhibition of Control Specific Binding” value [6] was under 0%. For the same compound, the “binding to parental CHO-K1 cells (in words)” value (parental CHO-K1 cells) was “lack of binding” and the “% Inhibition of Control Specific Binding” value (Bombesin BB) was under 0%.
